21 compounds from patent publication US9682925B2, “Cyclopropaneamine compound” (TAKEDA PHARMACEUTICAL COMPANY LIMITED, priority 2011, dated 2017) can be followed below.

Structures can show the parent of a compound that is named as a salt. Bounds are passed on as bounds.

Holding throughout (type): biochemical
One experiment concerns the target T1, human LSD1(171-852) (Homo sapiens, UniProt O60341).
T1 construct: to give hLSD1(171-852) purified product; made in house; host or cells: Escherichia coli C43(DE3) pLysS
The experiment can be described thus: Measurement of LSD1 inhibitory activity (time-resolved fluorescence, biotin-histone H3 mono methylated K4 peptide). As to conditions: read-out: LSD1 IC50 value.

The target in the next experiment is T2, MAO-A (Homo sapiens, UniProt P21397).
T2 construct: purchased Sigma-Aldrich Co. LLC
T2 sequence (P21397 1-527): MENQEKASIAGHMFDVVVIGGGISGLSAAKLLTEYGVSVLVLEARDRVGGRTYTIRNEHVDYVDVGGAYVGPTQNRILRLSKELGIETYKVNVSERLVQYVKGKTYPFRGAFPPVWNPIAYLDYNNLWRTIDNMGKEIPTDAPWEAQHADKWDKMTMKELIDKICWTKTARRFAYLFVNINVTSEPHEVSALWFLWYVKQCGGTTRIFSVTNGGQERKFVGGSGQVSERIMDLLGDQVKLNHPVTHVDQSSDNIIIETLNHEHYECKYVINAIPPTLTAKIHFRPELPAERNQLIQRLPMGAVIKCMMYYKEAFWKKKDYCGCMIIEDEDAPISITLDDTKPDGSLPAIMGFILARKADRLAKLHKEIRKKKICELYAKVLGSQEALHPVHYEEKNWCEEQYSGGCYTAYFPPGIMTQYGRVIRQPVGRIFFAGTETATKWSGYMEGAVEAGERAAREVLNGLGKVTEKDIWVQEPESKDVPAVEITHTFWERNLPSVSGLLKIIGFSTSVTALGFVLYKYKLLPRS
The experiment can be described thus: Measurement of MAO-A inhibitory activity (MAO-Glo Assay). A digest of the protocol: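 Luminescent MAO-Glo read-out: % inhibition computed from counts relative to enzyme-only control and enzyme-free blank. Compound and 400 ng MAO-A in HEPES pH 7.5 with 5% glycerol stood 10 min at room temperature before MAO substrate (160 μM stock) started a 60 min reaction.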

Another experiment deals with T3, MAO-B (Homo sapiens, UniProt P27338).
T3 construct: purchased Sigma-Aldrich Co. LLC
T3 sequence (P27338 1-520): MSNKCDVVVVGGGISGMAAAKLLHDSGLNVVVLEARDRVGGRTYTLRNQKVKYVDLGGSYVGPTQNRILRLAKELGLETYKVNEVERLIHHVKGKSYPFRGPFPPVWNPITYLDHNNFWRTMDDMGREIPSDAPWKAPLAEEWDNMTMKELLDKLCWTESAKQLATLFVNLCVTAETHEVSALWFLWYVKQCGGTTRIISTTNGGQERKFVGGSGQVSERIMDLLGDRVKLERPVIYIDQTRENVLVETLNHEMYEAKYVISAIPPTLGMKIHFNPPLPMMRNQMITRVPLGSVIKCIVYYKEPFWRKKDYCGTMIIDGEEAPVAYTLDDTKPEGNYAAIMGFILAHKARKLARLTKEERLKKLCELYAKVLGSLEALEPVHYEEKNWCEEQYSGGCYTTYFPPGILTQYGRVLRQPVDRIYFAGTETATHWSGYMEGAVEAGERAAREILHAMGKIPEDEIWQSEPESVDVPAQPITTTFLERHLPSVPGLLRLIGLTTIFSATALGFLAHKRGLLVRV
The experiment can be described thus: Measurement of MAO-B inhibitory activity (MAO-Glo Assay). Put shortly: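 Percent inhibition was calculated from luciferin-based luminescence, corrected with a blank lacking enzyme and a control lacking compound. The reaction ran 60 min at room temperature after adding MAO substrate (16 µM as added). This followed a 10 min compound–enzyme preincubation in HEPES pH 7.5 buffer.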

With `Cc1cc(NC(=O)c2ccccc2)ccc1[C@@H]1C[C@H]1NCC1CC1` (relative stereo) [Example 82, N-(4-{trans-2-[(cyclopropylmethyl)amino]cyclopropyl}-3-methylphenyl)benzamide hydrochloride], the IC50 (commonly the midpoint of a concentration-inhibition curve) at human LSD1(171-852) is less than 0.1 µM; against MAO-A, greater than 10 µM; against MAO-B, greater than 10 µM.

Consider `O=C(Nc1ccc([C@@H]2C[C@H]2NCC2CC2)cc1)C1CCCCC1` (relative stereo) [Example 141, N-(4-{trans-2-[(cyclopropylmethyl)amino]cyclopropyl}phenyl)-cyclohexanecarboxamide hydrochloride], for which the values for the IC50 at human LSD1(171-852), against MAO-A and against MAO-B were less than 0.1 µM, greater than 10 µM and greater than 10 µM, respectively.

For `O=C(Nc1ccc([C@@H]2C[C@H]2NCCOCc2ccccc2)cc1)c1ccccc1` (relative stereo) [Example 26, N-[4-(trans-2-{[2-(benzyloxy)-ethyl]amino}-cyclopropyl)-phenyl]benzamide], the IC50 on human LSD1(171-852) was less than 0.1 µM; on MAO-A, 9.2 µM; on MAO-B, greater than 10 µM.

In the case of `CC(C)(C)c1ccc(C(=O)Nc2ccc([C@@H]3C[C@H]3NCC3CC3)cc2)cc1` (relative stereo) [Example 70, 4-tert-butyl-N-(4-{trans-2-[(cyclopropylmethyl)amino]cyclopropyl}phenyl)benzamide hydrochloride], the IC50 was less than 0.1 µM on human LSD1(171-852), greater than 10 µM against MAO-A and greater than 10 µM on MAO-B.

With `O=C(Nc1ccc([C@@H]2C[C@H]2NCC2CC2)cc1)c1cccc(-n2ccnc2)c1` (relative stereo) [Example 148, N-(4-{trans-2-[(cyclopropylmethyl)amino]cyclopropyl}phenyl)-3-(1H-imidazol-1-yl)benzamide hydrochloride], the IC50 was less than 0.1 µM at human LSD1(171-852), 8.3 µM against MAO-A and greater than 10 µM against MAO-B.

On to `O=C(Nc1ccc([C@@H]2C[C@H]2NCc2ccccc2)cc1)c1cccc(CCc2ccccc2)c1` (relative stereo) [Example 34, N-{4-[trans-2-(benzylamino)cyclopropyl]phenyl}-3-(2-phenylethyl)benzamide], for which the figures for the IC50 at human LSD1(171-852), against MAO-A and against MAO-B were 0.19 µM, greater than 10 µM and greater than 10 µM, respectively.

For `COc1cccc(CN[C@@H]2C[C@H]2c2ccc(NC(=O)c3ccc(-c4ccccc4)cc3)cc2)c1` (relative stereo) [Example 41, N-(4-{trans-2-[(3-methoxybenzyl)-amino]cyclo-propyl}phenyl)-biphenyl-4-carboxamide], the half-inhibitory concentration (IC50) at human LSD1(171-852) came out at 0.11 µM; against MAO-A, 5.8 µM; at MAO-B, 5.1 µM.

In the case of `O=C(Nc1ccc([C@@H]2C[C@H]2NCC2CC2)cc1)c1ccc2ncsc2c1` (relative stereo) [Example 90, N-(4-{trans-2-[(cyclopropylmethyl)amino]cyclopropyl}-phenyl)-1,3-benzothiazole-6-carboxamide], the IC50 at human LSD1(171-852) is less than 0.1 µM; at MAO-A it was greater than 10 µM; on MAO-B, greater than 10 µM.

Take `Cn1cc(C(=O)Nc2ccc([C@@H]3C[C@H]3NCC3CC3)cc2)c(C(F)(F)F)n1` (relative stereo) [Example 158, N-(4-{trans-2-[(cyclopropylmethyl)amino]cyclopropyl}phenyl)-1-methyl-3-(trifluoromethyl)-1H-pyrazole-4-carboxamide hydrochloride]: the IC50 on human LSD1(171-852) was less than 0.1 µM; against MAO-A it was greater than 10 µM; on MAO-B, greater than 10 µM.

Take `O=C(Nc1ccc([C@@H]2C[C@H]2NCC2CC2)cc1)c1ccc(-c2csnn2)cc1` (relative stereo) [Example 119, N-(4-{trans-2-[(cyclopropylmethyl)amino]cyclopropyl}-phenyl)-4-(1,2,3-thiadiazol-4-yl)benzamide]: the IC50 was less than 0.1 µM on human LSD1(171-852), 0.1 µM against MAO-A and greater than 10 µM at MAO-B.

Turning to `O=C(Nc1ccc([C@@H]2C[C@H]2NCC2CC2)cc1)c1cc(-c2ccccc2)no1` (relative stereo) [Example 133, N-(4-{trans-2-[(cyclopropyl-methyl)amino]-cyclopropyl}-phenyl)-3-phenyl-1,2-oxazole-5-carboxamide], the IC50 on human LSD1(171-852) is less than 0.1 µM; against MAO-A, greater than 10 µM; at MAO-B it was greater than 10 µM.

Regarding `O=C(Nc1ccc([C@@H]2C[C@H]2NCc2ccccc2)cc1)c1cccc(Cc2ccccc2)c1` (relative stereo) [Example 28, 3-benzyl-N-{4-[trans-2-(benzylamino)cyclopropyl]phenyl}benzamide], the values for the IC50 at human LSD1(171-852), at MAO-A and on MAO-B were less than 0.1 µM, 3.5 µM and greater than 10 µM, respectively.

`O=C(Nc1ccc([C@@H]2C[C@H]2NCC2CC2)cc1)c1ccccc1` (relative stereo) [Example 140, N-(4-{trans-2-[(cyclopropylmethyl)amino]cyclopropyl}phenyl)benzamide hydrochloride]: the values for the IC50 at human LSD1(171-852), against MAO-A and against MAO-B were less than 0.1 µM, greater than 10 µM and greater than 10 µM, respectively.

For `CS(=O)(=O)Nc1cccc(C(=O)Nc2ccc([C@@H]3C[C@H]3NCC3CC3)cc2)c1` (relative stereo) [Example 136, N-(4-{trans-2-[(cyclopropylmethyl)amino]cyclopropyl}phenyl)-3-[(methylsulfonyl)amino]benzamide hydrochloride], the IC50 at human LSD1(171-852) is less than 0.1 µM; at MAO-A, greater than 10 µM; on MAO-B, greater than 10 µM.

For `Cc1cccc(C(=O)Nc2ccc([C@@H]3C[C@H]3NCc3ccccc3)cc2)c1` (relative stereo) [Example 7, N-{4-[trans-2-(benzylamino)cyclopropyl]phenyl}-3-methylbenzamide], the results for the half-inhibitory concentration (IC50) at human LSD1(171-852), on MAO-A and against MAO-B were less than 0.1 µM, 5.6 µM and greater than 10 µM, respectively.

Regarding `O=C(Nc1ccc([C@@H]2C[C@H]2NCC2CC2)cc1)c1ccc(-c2nnn[nH]2)cc1` (relative stereo) [Example 102, N-(4-{trans-2-[(cyclopropylmethyl)-amino]cyclopropyl}-phenyl)-4-(1H-tetrazol-5-yl)benzamide], the IC50 is 0.2 µM at human LSD1(171-852), greater than 10 µM on MAO-A and greater than 10 µM against MAO-B.

Regarding `O=C(Nc1ccc([C@@H]2C[C@H]2NC2CCCCCCC2)cc1)c1ccccc1` (relative stereo) [Example 24, N-{4-[trans-2-(cyclooctyl-amino)cyclo-propyl]phenyl}-benzamide], the IC50 at human LSD1(171-852) was less than 0.1 µM; on MAO-A, greater than 10 µM; against MAO-B it was greater than 10 µM.

Take `CN1CCC(N[C@@H]2C[C@H]2c2ccc(NC(=O)c3cccc(Br)c3)cc2)CC1` (relative stereo) [Example 5, 3-bromo-N-(4-{trans-2-[(1-methylpiperidin-4-yl)amino]cyclopropyl}phenyl)benzamide]: the IC50 at human LSD1(171-852) was less than 0.1 µM; on MAO-A it was 7.7 µM; on MAO-B, greater than 10 µM.

Consider `O=C(Nc1ccc([C@@H]2C[C@H]2NCC2CC2)cc1)c1cccc(OC(F)(F)F)c1` (relative stereo) [Example 109, N-(4-{trans-2-[(cyclopropylmethyl)amino]cyclopropyl}phenyl)-3-(trifluoromethoxy)benzamide hydrochloride], for which the IC50 at human LSD1(171-852) is less than 0.1 µM; against MAO-A, greater than 10 µM; at MAO-B, greater than 10 µM.

Regarding `CS(=O)(=O)Nc1ccc(C(=O)Nc2ccc([C@@H]3C[C@H]3NCC3CC3)cc2)cc1` (relative stereo) [Example 135, N-(4-{trans-2-[(cyclopropylmethyl)amino]cyclopropyl}phenyl)-4-[(methylsulfonyl)amino]benzamide hydrochloride], the results for the IC50 at human LSD1(171-852), against MAO-A and against MAO-B were 0.1 µM, greater than 10 µM and greater than 10 µM, respectively.

In the case of `O=C(Nc1ccc([C@@H]2C[C@H]2NCC2CC2)cc1)c1ccc(-c2cccnc2)cc1` (relative stereo) [Example 132, N-(4-{trans-2-[(cyclopropyl-methyl)amino]-cyclopropyl}-phenyl)-4-(pyridin-3-yl)benzamide], the IC50 at human LSD1(171-852) was less than 0.1 µM; against MAO-A, 8.3 µM; against MAO-B, greater than 10 µM.
